Experimental data reported in PubChem BioAssay (NCI).
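Grown in 96-well plates, cells were treated for 48 hours with each compound at five concentrations. Insufficient inhibition: endpoint recorded as highest concentration tested. Here, GI50 denotes the concentration required for 50% inhibition of growth. TGI marks complete inhibition of growth.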

Assays:
Experiment in all cases: inhibition of tumour cell growth, NCI panel, 48 h
[1] = tested on: LXFL 529 NSCLC
[2] = tested on: NCI-H460 lung
[3] = tested on: HOP-92 NSCLC
[4] = tested on: A549 NSCLC
[5] = tested on: NCI-H23 lung
[6] = tested on: SK-MEL-2 melanoma
[7] = tested on: LOX IMVI melanoma
[8] = tested on: M19-MEL melanoma
[9] = tested on: UACC-62 melanoma
[10] = tested on: U251 CNS
[11] = tested on: SW-620 colon
[12] = tested on: MALME-3M melanoma
[13] = tested on: RPMI-8226 leukemia
[14] = tested on: COLO 205 colon
[15] = tested on: NCI-H522 lung
[16] = tested on: A498 renal
[17] = tested on: EKVX NSCLC
[18] = tested on: KM20L2 colon
[19] = tested on: OVCAR-5 ovarian
[20] = tested on: SK-OV-3 ovarian
[21] = tested on: HOP-62 NSCLC
[22] = tested on: IGROV1 ovarian
[23] = tested on: M14 melanoma
[24] = tested on: 786-0 renal
[25] = tested on: HCC-2998 colon
[26] = tested on: HT29 colon
[27] = tested on: SN12C renal
[28] = tested on: OVCAR-3 ovarian
[29] = tested on: HCT-15 colon
[30] = tested on: KM12 colon
[31] = tested on: SF-295 CNS
[32] = tested on: SF-268 CNS
[33] = tested on: ACHN renal
[34] = tested on: RXF 393 renal
[35] = tested on: SNB-75 CNS
[36] = tested on: UACC-257 melanoma
[37] = tested on: CAKI-1 renal
[38] = tested on: HL-60(TB) leukemia
[39] = tested on: SK-MEL-28 melanoma
[40] = tested on: OVCAR-8 ovarian
[41] = tested on: CCRF-CEM leukemia
[42] = tested on: DLD-1 colon
[43] = tested on: K-562 leukemia
[44] = tested on: TK-10 renal
[45] = tested on: OVCAR-4 ovarian
[46] = tested on: MOLT-4 leukemia
[47] = tested on: SK-MEL-5 melanoma
[48] = tested on: SNB-19 CNS
[49] = tested on: DMS 273 small cell lung
[50] = tested on: DMS 114 small cell lung
[51] = tested on: XF 498 CNS
[52] = tested on: UO-31 renal
[53] = tested on: SNB-78 CNS
[54] = tested on: NCI-H226 lung
[55] = tested on: SF-539 CNS
[56] = tested on: HCT-116 colon
[57] = tested on: SR leukemia
[58] = tested on: HOP-18 NSCLC
[59] = tested on: RXF-631 renal

CC(=O)[CH-]C(=O)c1ccccc1.CC(=O)[CH-]C(=O)c1ccccc1.[O]=[U+2]=[O]
GI50 [1]: 32.7 µM
TGI [1]: > 100 µM
GI50 [2]: 36.9 µM
TGI [2]: > 100 µM
GI50 [3]: 39.9 µM
TGI [3]: > 100 µM
GI50 [4]: 31 µM
TGI [4]: > 100 µM
GI50 [5]: 46.9 µM
TGI [5]: > 100 µM
GI50 [6]: 37.4 µM
TGI [6]: > 100 µM
GI50 [7]: 25.4 µM
TGI [7]: > 100 µM
GI50 [8]: 28.9 µM
TGI [8]: > 100 µM
GI50 [9]: 33.1 µM
TGI [9]: > 100 µM
GI50 [10]: 35.5 µM
TGI [10]: > 100 µM
GI50 [11]: 35.3 µM
TGI [11]: > 100 µM
GI50 [12]: 21.8 µM
TGI [12]: 54.6 µM
GI50 [13]: 40.7 µM
TGI [13]: > 100 µM
GI50 [14]: 28.4 µM
TGI [14]: 78.5 µM
GI50 [15]: 65.2 µM
TGI [15]: > 100 µM
GI50 [16]: 28.7 µM
TGI [16]: 96.9 µM
GI50 [17]: 32.8 µM
TGI [17]: > 100 µM
GI50 [18]: 37.1 µM
TGI [18]: > 100 µM
GI50 [19]: > 100 µM
TGI [19]: > 100 µM
GI50 [20]: 68.5 µM
TGI [20]: > 100 µM
GI50 [21]: 23.8 µM
TGI [21]: 66.2 µM
GI50 [22]: 55 µM
TGI [22]: > 100 µM
GI50 [23]: 35.8 µM
TGI [23]: > 100 µM
GI50 [24]: 40.2 µM
TGI [24]: > 100 µM
GI50 [25]: 18.7 µM
TGI [25]: 65.4 µM
GI50 [26]: 23.4 µM
TGI [26]: 57.4 µM
GI50 [27]: 56 µM
TGI [27]: > 100 µM
GI50 [28]: 88.2 µM
TGI [28]: > 100 µM
GI50 [29]: 35.1 µM
TGI [29]: > 100 µM
GI50 [30]: 3.67 µM
TGI [30]: 9.83 µM
GI50 [31]: 6.55 µM
TGI [31]: > 100 µM
GI50 [32]: 58.2 µM
TGI [32]: > 100 µM
GI50 [33]: 33.6 µM
TGI [33]: > 100 µM
GI50 [34]: 34 µM
TGI [34]: > 100 µM
GI50 [35]: 23 µM
TGI [35]: 98.7 µM
GI50 [36]: 34.3 µM
TGI [36]: > 100 µM
GI50 [37]: 39.2 µM
TGI [37]: > 100 µM
GI50 [38]: 29.6 µM
TGI [38]: 80.3 µM
GI50 [39]: 36.2 µM
TGI [39]: > 100 µM
GI50 [40]: 35 µM
TGI [40]: > 100 µM
GI50 [41]: 27.8 µM
TGI [41]: > 100 µM
GI50 [42]: 29.7 µM
TGI [42]: > 100 µM
GI50 [43]: 37.3 µM
TGI [43]: > 100 µM
GI50 [44]: 37.8 µM
TGI [44]: > 100 µM
GI50 [45]: 40.3 µM
TGI [45]: > 100 µM
GI50 [46]: 32.3 µM
TGI [46]: > 100 µM
GI50 [47]: 26.8 µM
TGI [47]: > 100 µM

CN1CC2(CCCCC2)C(O)C12C=CCCC2 (configuration not stated)
TGI [1]: > 100 µM
TGI [48]: > 100 µM
TGI [4]: > 100 µM
TGI [5]: > 100 µM
TGI [6]: > 100 µM
TGI [7]: > 100 µM
TGI [8]: > 100 µM
TGI [9]: > 100 µM
TGI [10]: > 100 µM
TGI [11]: > 100 µM
TGI [12]: > 100 µM
TGI [13]: > 100 µM
TGI [14]: > 100 µM
TGI [15]: > 100 µM
TGI [16]: > 100 µM
TGI [17]: > 100 µM
TGI [49]: > 100 µM
TGI [18]: > 100 µM
TGI [20]: > 100 µM
TGI [21]: > 100 µM
TGI [22]: > 100 µM
TGI [23]: > 100 µM
TGI [24]: > 100 µM
TGI [25]: > 100 µM
TGI [26]: > 100 µM
TGI [27]: > 100 µM
TGI [28]: > 100 µM
TGI [29]: > 100 µM
TGI [30]: > 100 µM
TGI [31]: > 100 µM
TGI [32]: > 100 µM
TGI [34]: > 100 µM
TGI [50]: > 100 µM
TGI [51]: > 100 µM
TGI [52]: > 100 µM
TGI [35]: > 100 µM
TGI [36]: > 100 µM
TGI [37]: > 100 µM
TGI [38]: > 100 µM
TGI [39]: > 100 µM
TGI [40]: > 100 µM
TGI [53]: > 100 µM
TGI [54]: > 100 µM
TGI [41]: > 100 µM
TGI [55]: > 100 µM
TGI [42]: > 100 µM
TGI [43]: > 100 µM
TGI [44]: > 100 µM
TGI [46]: > 100 µM
TGI [47]: > 100 µM

COc1ccc2cccc(C(=N)c3ccc(C)c4c3CCC4)c2c1
TGI [56]: 15.9 µM
TGI [57]: 9.03 µM
TGI [1]: 16.5 µM
TGI [48]: 23.3 µM
TGI [58]: 15.5 µM
TGI [2]: 16.7 µM
TGI [4]: 26.8 µM
TGI [5]: 19.6 µM
TGI [6]: 24.4 µM
TGI [7]: 25.5 µM
TGI [8]: 21.5 µM
TGI [9]: 15.8 µM
TGI [10]: 21.4 µM
TGI [11]: 18.7 µM
TGI [12]: 18.1 µM
TGI [14]: 25.9 µM
TGI [15]: 10.1 µM
TGI [16]: 5.87 µM
TGI [17]: 30.1 µM
TGI [49]: 21.2 µM
TGI [18]: 19.3 µM
TGI [19]: 18.9 µM
TGI [20]: 29.9 µM
TGI [21]: 20 µM
TGI [22]: 19.2 µM
TGI [23]: 18.6 µM
TGI [24]: 21.9 µM
TGI [25]: 23.1 µM
TGI [26]: 15 µM
TGI [27]: 24.5 µM
TGI [28]: 17.6 µM
TGI [29]: 20.6 µM
TGI [59]: 4.37 µM
TGI [30]: 22.9 µM
TGI [31]: 17.7 µM
TGI [32]: 31.8 µM
TGI [33]: 21.7 µM
TGI [34]: 26.3 µM
TGI [50]: 19.9 µM
TGI [52]: 16.2 µM
TGI [35]: 27.2 µM
TGI [36]: 18.2 µM
TGI [37]: 16.1 µM
TGI [38]: 9.12 µM
TGI [39]: 26.9 µM
TGI [40]: 24 µM
TGI [54]: 26.9 µM
TGI [41]: 26.6 µM
TGI [43]: 10.8 µM
TGI [44]: 24.2 µM
TGI [45]: 24.9 µM
TGI [46]: 26.1 µM
TGI [47]: 14.8 µM
